According to paper PMC4607586 (Bioorganic & medicinal chemistry letters, 2015):

How the values were obtained:
HIV-1 protease = HIV-1 protease (Human immunodeficiency virus type 1 group M subtype B, UniProt P04585); experiment: HIV-1 protease enzyme inhibition assay; assay type: biochemical; conditions: for improvement of protease inhibitory activity over 5b: relative to N-methyl-N-propyl amide 5b
HIV-1 LAI = experiment: Antiviral assay using MT-2 cells exposed to HIV-1 LAI; assay type: cell-based

SMILES | improvement of protease inhibitory activity over 5b (HIV-1 protease) | antiviral activity (in words) (HIV-1 LAI) | enhanced potency over 5a (enzyme inhibition) (HIV-1 protease; relative to 5a)
COc1ccc(S(=O)(=O)N(CC(C)C)C[C@@H](O)[C@H](Cc2ccccc2)NC(=O)c2cccc(C(=O)N3CCOCC3)c2)cc1 [Inhibitor 5f] | over 10 fold | very good antiviral activity | 
CCCN(CCC)C(=O)c1cccc(C(=O)N[C@@H](Cc2ccccc2)[C@H](O)CN(CC(C)C)S(=O)(=O)c2ccc(OC)cc2)c1 [Inhibitor 5e] |  | no appreciable antiviral activity | 
COC[C@H]1C[C@@H](O)CN1C(=O)c1cccc(C(=O)N[C@@H](Cc2ccccc2)[C@H](O)CN(CC(C)C)S(=O)(=O)c2ccc(OC)cc2)c1 [Inhibitor 5k] |  | moderate antiviral activity | 
COc1ccc(S(=O)(=O)N(CC(C)C)C[C@@H](O)[C@H](Cc2ccccc2)NC(=O)c2cccc(C(=O)N3CCN(C)CC3)c2)cc1 [Inhibitor 5g] | over 10 fold | very good antiviral activity | 
COC[C@H]1C[C@H](O)CN1C(=O)c1cccc(C(=O)N[C@@H](Cc2ccccc2)[C@H](O)CN(CC(C)C)S(=O)(=O)c2ccc(OC)cc2)c1 [Inhibitor 5i] |  | moderate antiviral activity | 
COC[C@@H]1C[C@@H](O)CN1C(=O)c1cccc(C(=O)N[C@@H](Cc2ccccc2)[C@H](O)CN(CC(C)C)S(=O)(=O)c2ccc(OC)cc2)c1 [Inhibitor 5h] |  | moderate antiviral activity | 
CCCN(C)C(=O)c1cccc(C(=O)N[C@@H](Cc2ccccc2)[C@H](O)CN(CC(C)C)S(=O)(=O)c2ccc(OC)cc2)c1 [Inhibitor 5b] |  |  | 5 fold
